Consider two molecules from patent US20140155341A1, “USE OF SS'-DIMETHYL-GLIOTOXIN AS […] OF P[…] BY GLIOTOXIN-PRODUCING FUNGI OR THEIR DERIVATIVES” (priority 2011, published 2014).

SMILES strings stand for the structures.

One series has as its system blood cells. The series is described as follows: Recovery of GT and bmGT from human whole blood (influence of blood cells). The class given is in vitro ADME. As to conditions: for lost in the blood cells: added to total blood, plasma levels analysed after 10 minutes. On the procedure:
(§1) […] Later, the blood was centrifuged at 2000 revolutions per minute (rpm) during 15 minutes, the serum was recovered and GT and bmGT were extracted and analysed as described above.
(§2) The samples were separated using a horizontal developing chamber (Camag) by facing the plates downwards. n-heptane (C7), MeOH, tetrahydrofuran (THF) and acetonitrile (ACN) (HPLC grade, Scharlau, Barcelona, Spain) were used as solvents. The separation and quantification of GT and bmGT was performed with a mixture of THF:C7:ACN (40:58:2) (v:v:v) during 3 min.
(§3) Detection and quantification by UV spectroscopy, a TLC3 scanner was used (Camag) in UV mode whereby a UV scanning densitometry was carried out to determine GT and bmGT (wavelength (λ)=280 and 367 nm). A linear scan with a beam of 4 mm×0.2 mm was used in both cases. The area under the peaks was quantified and saved using Camag's software.
(§4) In parallel, the influence of the presence of blood cells on the recovery of GT and bmGT was analysed. Unlike the serum and plasma, less than 10% of GT was recovered from the whole blood, even when large quantities of GT (20 ug) were added (Table 1). […] The precision of this determination was as high as in the serum or plasma with RSD values of between 9-16%. Aliquots of blood and plasma from the same unit of blood were used simultaneously to perform these determinations, therefore, the only, but crucial, difference between both fluids is the presence of red and white cells in the blood.

Test in series [1]: as above
The class given is in vitro ADME. To be noted: whole blood, human blood, blood centrifuged before extraction to eliminate cellular fraction; for recovery at 30 min, 5 µg/mL: 5 μg added to 1 ml; for recovery at 30 min, 20 µg/mL: 20 μg added to 1 ml. As for the experimental part: as §1, §2, §3, §4

For series [2] the following is noted: disulfide bond blocked by methylation; cited from earlier work.

For the molecule `CN1C(=O)[C@]23CC4=CC=C[C@H](O)[C@H]4N2C(=O)[C@@]1(CO)SS3` [GT, Gliotoxin], the “lost in the blood cells” value with blood cells stood at 90%. For the same molecule, the “recovered from the whole blood” value in the series with blood cells (whole blood, even when large quantities (20 ug) were added) is “less than 10%”. In addition, in series [1], the recovery at 30 min, 5 µg/mL was determined as 8.44% and the recovery at 30 min, 20 µg/mL was 6.56%.

With `CS[C@]1(CO)C(=O)N2C3C(=CC=C[C@@H]3O)C[C@@]2(SC)C(=O)N1C` (some centres unmarked) [bmGT], the biological activity entry in series [2] is “biologically inactive”. Besides, the “lost in the blood cells” value in the series on blood cells is listed as 10-15%. In series [1], the recovery at 30 min, 5 µg/mL was 73.2% and the recovery at 30 min, 20 µg/mL came to 87.2%.
